# According to US12478617B2, “Lipidated peptide inhibitors of interleukin-23 receptor” (JANSSEN BIOTECH, INC., priority 2021, dated 2025):
# pIC50: −log10 of the molar value. Starred links: 1 amine or outer side, 2 acyl side, 3 side chain; linkers in the order of their positions; H or OH if unused. Positions of bridges follow the written chain, without caps; N, C: chain ends. Non-standard residues stand in square brackets, D forms with d. Residues, ends and D or L forms follow the SMILES beside them. Groups on a side chain read outwards from the residue. *: point of attachment. Decanoyl(10-O(3-COOH-Ph)) = O=C(O)c1cccc(OCCCCCCCCCC(=O)*)c1; Trp(7-Me) = Cc1cccc2c(C[C@H](N)C(=O)O)c[nH]c12; C20 diacid = O=C(O)CCCCCCCCCCCCCCCCCCC(=O)*; C18 diacid = O=C(O)CCCCCCCCCCCCCCCCC(=O)*; γGlu = O=C(O)[C@H](CCC(=O)[*:2])N[*:1]; 2Nal = N[C@@H](Cc1ccc2ccccc2c1)C(=O)O; AEF = NCCOc1ccc(C[C@H](N)C(=O)O)cc1; Stearoyl = CCCCCCCCCCCCCCCCCC(=O)*; Palmitoyl = CCCCCCCCCCCCCCCC(=O)*; 3Pal = N[C@@H](Cc1cccnc1)C(=O)O; Pen = CC(C)(S)[C@H](N)C(=O)O; Thp = NC1(C(=O)O)CCOCC1; AEEA = NCCOCCOCC(=O)O; Sar = CNCC(=O)O
# Target: T1, IL-23R (Homo sapiens, UniProt Q5VWK5)
# T1 construct: HEK293 cells containing IL-23R, IL-12RP31 and a firefly luciferase reporter gene driven by a STAT-inducible promoter (Promega); host or cells: HEK293
# T1 sequence (Q5VWK5 24-629): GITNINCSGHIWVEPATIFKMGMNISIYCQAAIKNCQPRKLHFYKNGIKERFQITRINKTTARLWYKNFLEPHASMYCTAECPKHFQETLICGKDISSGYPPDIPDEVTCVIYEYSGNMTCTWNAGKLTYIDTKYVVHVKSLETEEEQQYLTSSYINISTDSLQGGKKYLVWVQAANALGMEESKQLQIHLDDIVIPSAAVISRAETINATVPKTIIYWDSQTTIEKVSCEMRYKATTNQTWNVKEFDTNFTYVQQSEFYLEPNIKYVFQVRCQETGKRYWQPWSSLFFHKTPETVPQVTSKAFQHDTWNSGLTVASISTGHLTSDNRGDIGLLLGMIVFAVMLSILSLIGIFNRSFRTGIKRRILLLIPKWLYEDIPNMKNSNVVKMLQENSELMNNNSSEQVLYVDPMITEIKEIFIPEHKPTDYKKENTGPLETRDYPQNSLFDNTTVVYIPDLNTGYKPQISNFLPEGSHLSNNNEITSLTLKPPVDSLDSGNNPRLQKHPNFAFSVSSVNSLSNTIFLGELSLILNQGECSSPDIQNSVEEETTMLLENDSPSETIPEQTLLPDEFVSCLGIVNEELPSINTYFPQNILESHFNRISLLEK
# Assay: IL23R Reporter Assay
# Type: cell-based
# Outline: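 Luminescence from BioGlo, read after cells were moved to 20 °C, followed a 5 h incubation at 37 °C, 5% CO2 with DMSO-diluted test compounds.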
row,pIC50,Compound
1,10.43,"CCCCCCCCCCCCCCCCCC(=O)N[C@@H](CCC(=O)NCCCC[C@@H](NC(C)=O)C(=O)N[C@@H]1C(=O)N[C@@H](CC(N)=O)C(=O)N[C@@H]([C@@H](C)O)C(=O)N[C@@H](Cc2c[nH]c3c(C)cccc23)C(=O)N[C@@H](CCCCNC(C)=O)C(=O)N[C@H](C(=O)N[C@@H](Cc2ccc(OCCN)cc2)C(=O)N[C@@H](Cc2ccc3ccccc3c2)C(=O)NC2(C(=O)N[C@@H](CCCCNC(C)=O)C(=O)N[C@@H](CC(N)=O)C(=O)N[C@@H](Cc3cccnc3)C(=O)N(C)CC(N)=O)CCOCC2)C(C)(C)SSC1(C)C)C(=O)O [Example 68, MeCO-k(gEC18)-Pen*-N-T-7MeW-K(Ac)-Pen*-AEF-2Nal-THP-K(Ac)-N-3Pya-Sar-CONH2] (Ac-[dK]([γGlu-Stearoyl])[Pen]NT[Trp(7-Me)]K(Ac)[Pen][AEF][2Nal][Thp]K(Ac)N[3Pal][Sar]-NH2; disulfide 2-7)"
2,9.89,"CCCCCCCCCCCCCCCC(=O)N[C@@H](CCC(=O)NCCCC[C@@H]1NC(=O)[C@@H](NC(=O)[C@@H](CCCNC(=N)N)NC(C)=O)C(C)(C)SSC(C)(C)[C@@H](C(=O)N[C@@H](Cc2ccc(OCCN)cc2)C(=O)N[C@@H](Cc2ccc3ccccc3c2)C(=O)NC2(C(=O)N[C@@H](CCCCNC(C)=O)C(=O)N[C@@H](CC(N)=O)C(=O)N[C@@H](Cc3cccnc3)C(=O)N(C)CC(N)=O)CCOCC2)NC(=O)[C@H](CCCCNC(C)=O)NC(=O)[C@H](Cc2c[nH]c3c(C)cccc23)NC(=O)[C@H]([C@@H](C)O)NC1=O)C(=O)O [Example 69, MeCO-r-Pen*-K(gEC16)-T-7MeW-K(Ac)-Pen*-AEF-2Nal-THP-K(Ac)-N-3Pya-Sar-CONH2] (Ac-[dR][Pen]K([γGlu-Palmitoyl])T[Trp(7-Me)]K(Ac)[Pen][AEF][2Nal][Thp]K(Ac)N[3Pal][Sar]-NH2; disulfide 2-7)"
3,10.02,"CCCCCCCCCCCCCCCC(=O)N[C@@H](CCC(=O)NCCCC[C@H](NC(=O)C1(NC(=O)[C@H](Cc2ccc3ccccc3c2)NC(=O)[C@H](Cc2ccc(OCCN)cc2)NC(=O)[C@H]2NC(=O)[C@H](CCCCNC(C)=O)NC(=O)[C@H](Cc3c[nH]c4c(C)cccc34)NC(=O)[C@H]([C@@H](C)O)NC(=O)[C@H](CC(N)=O)NC(=O)[C@@H](NC(C)=O)C(C)(C)SSC2(C)C)CCOCC1)C(=O)N[C@@H](CC(N)=O)C(=O)N[C@@H](Cc1cccnc1)C(=O)N(C)CC(N)=O)C(=O)O [Example 75, MeCO-Pen*-N-T-7MeW-K(Ac)-Pen*-AEF-2Nal-THP-K(gEC16)-N-3Pya-Sar-CONH2] (Ac-[Pen]NT[Trp(7-Me)]K(Ac)[Pen][AEF][2Nal][Thp]K([γGlu-Palmitoyl])N[3Pal][Sar]-NH2; disulfide 1-6)"
4,10.28,"CCCCCCCCCCCCCCCC(=O)N[C@@H](CCC(=O)NCCOCCOCC(=O)NCCOCCOCC(=O)NCCCC[C@@H]1NC(=O)[C@@H](NC(C)=O)C(C)(C)SSC(C)(C)[C@@H](C(=O)N[C@@H](Cc2ccc(OCCN)cc2)C(=O)N[C@@H](Cc2ccc3ccccc3c2)C(=O)NC2(C(=O)N[C@@H](CCCCNC(C)=O)C(=O)N[C@@H](CC(N)=O)C(=O)N[C@@H](Cc3cccnc3)C(=O)N(C)CC(N)=O)CCOCC2)NC(=O)[C@H](CCCCNC(C)=O)NC(=O)[C@H](Cc2c[nH]c3c(C)cccc23)NC(=O)[C@H]([C@@H](C)O)NC1=O)C(=O)O [Example 83, MeCO-Pen*-K(PEG2PEG2gEC16)-T-7MeW-K(Ac)-Pen*-AEF-2Nal-THP-K(Ac)-N-3Pya-Sar-CONH2] (Ac-[Pen]K([AEEA-AEEA-γGlu-Palmitoyl])T[Trp(7-Me)]K(Ac)[Pen][AEF][2Nal][Thp]K(Ac)N[3Pal][Sar]-NH2; disulfide 1-6)"
5,9.70,"CC(=O)NCCCC[C@H](NC(=O)C1(NC(=O)[C@H](Cc2ccc3ccccc3c2)NC(=O)[C@H](Cc2ccc(OCCN)cc2)NC(=O)[C@H]2NC(=O)[C@H](CCCCNC(=O)COCCOCCNC(=O)COCCOCCNC(=O)CC[C@H](NC(=O)CCCCCCCCCCCCCCCCC(=O)O)C(=O)O)NC(=O)[C@H](Cc3c[nH]c4c(C)cccc34)NC(=O)[C@H]([C@@H](C)O)NC(=O)[C@H](CC(N)=O)NC(=O)[C@@H](NC(=O)[C@@H](CCCNC(=N)N)NC(C)=O)C(C)(C)SSC2(C)C)CCOCC1)C(=O)N[C@@H](CC(N)=O)C(=O)N[C@@H](Cc1cccnc1)C(=O)N(C)CC(N)=O [Example 88, MeCO-r-Pen*-N-T-7MeW-K(PEG2PEG2gEC18OH)-Pen*-AEF-2Nal-THP-K(Ac)-N-3Pya-Sar-CONH2] (Ac-[dR][Pen]NT[Trp(7-Me)]K([AEEA-AEEA-γGlu-C18 diacid])[Pen][AEF][2Nal][Thp]K(Ac)N[3Pal][Sar]-NH2; disulfide 2-7)"
6,9.47,"CC(=O)NCCCC[C@@H]1NC(=O)[C@H](Cc2c[nH]c3c(C)cccc23)NC(=O)[C@H]([C@@H](C)O)NC(=O)[C@H](CC(N)=O)NC(=O)[C@@H](NC(C)=O)C(C)(C)SSC(C)(C)[C@@H](C(=O)N[C@@H](Cc2ccc(OCCN)cc2)C(=O)N[C@@H](Cc2ccc3ccccc3c2)C(=O)NC2(C(=O)N[C@@H](CCCCNC(=O)CC[C@H](NC(=O)CCCCCCCCCCCCCCCCCCC(=O)O)C(=O)O)C(=O)N[C@@H](CC(N)=O)C(=O)N[C@@H](Cc3cccnc3)C(=O)N(C)CC(N)=O)CCOCC2)NC1=O [Example 89, MeCO-Pen*-N-T-7MeW-K(Ac)-Pen*-AEF-2Nal-THP-K(gEC20OH)-N-3Pya-Sar-CONH2] (Ac-[Pen]NT[Trp(7-Me)]K(Ac)[Pen][AEF][2Nal][Thp]K([γGlu-C20 diacid])N[3Pal][Sar]-NH2; disulfide 1-6)"
7,9.85,"CC(=O)NCCCC[C@@H]1NC(=O)[C@H](Cc2c[nH]c3c(C)cccc23)NC(=O)[C@H]([C@@H](C)O)NC(=O)[C@H](CCCCNC(=O)COCCOCCNC(=O)COCCOCCNC(=O)[C@@H]2CCCN2C(=O)CC[C@H](NC(=O)CCCCCCCCCCCCCCCCC(=O)O)C(=O)O)NC(=O)[C@@H](NC(=O)[C@@H](CCCNC(=N)N)NC(C)=O)C(C)(C)SSC(C)(C)[C@@H](C(=O)N[C@@H](Cc2ccc(OCCN)cc2)C(=O)N[C@@H](Cc2ccc3ccccc3c2)C(=O)NC2(C(=O)N[C@@H](CCCCNC(C)=O)C(=O)N[C@@H](CC(N)=O)C(=O)N[C@@H](Cc3cccnc3)C(=O)N(C)CC(N)=O)CCOCC2)NC1=O [Example 95, MeCO-r-Pen*-K(PEG2PEG2PgEC18OH)-T-7MeW-K(Ac)-Pen*-AEF-2Nal-THP-K(Ac)-N-3Pya-Sar-CONH2] (Ac-[dR][Pen]K([AEEA-AEEA-Pro-γGlu-C18 diacid])T[Trp(7-Me)]K(Ac)[Pen][AEF][2Nal][Thp]K(Ac)N[3Pal][Sar]-NH2; disulfide 2-7)"
8,9.89,"CC(=O)NCCCC[C@@H]1NC(=O)[C@H](Cc2c[nH]c3c(C)cccc23)NC(=O)[C@H]([C@@H](C)O)NC(=O)[C@H](CCCCNC(=O)COCCOCCNC(=O)COCCOCCNC(=O)[C@H]2CCCN2C(=O)CC[C@H](NC(=O)CCCCCCCCCCCCCCCCC(=O)O)C(=O)O)NC(=O)[C@@H](NC(=O)[C@@H](CCCNC(=N)N)NC(C)=O)C(C)(C)SSC(C)(C)[C@@H](C(=O)N[C@@H](Cc2ccc(OCCN)cc2)C(=O)N[C@@H](Cc2ccc3ccccc3c2)C(=O)NC2(C(=O)N[C@@H](CCCCNC(C)=O)C(=O)N[C@@H](CC(N)=O)C(=O)N[C@@H](Cc3cccnc3)C(=O)N(C)CC(N)=O)CCOCC2)NC1=O [Example 96, MeCO-r-Pen*-K(PEG2PEG2pgEC18OH)-T-7MeW-K(Ac)-Pen*-AEF-2Nal-THP-K(Ac)-N-3Pya-Sar-CONH2] (Ac-[dR][Pen]K([AEEA-AEEA-dP-γGlu-C18 diacid])T[Trp(7-Me)]K(Ac)[Pen][AEF][2Nal][Thp]K(Ac)N[3Pal][Sar]-NH2; disulfide 2-7)"
9,11.09,"CC(=O)NCCCC[C@@H]1NC(=O)[C@H](Cc2c[nH]c3c(C)cccc23)NC(=O)[C@H]([C@@H](C)O)NC(=O)[C@H](CC(N)=O)NC(=O)[C@@H](NC(C)=O)C(C)(C)SSC(C)(C)[C@@H](C(=O)N[C@@H](Cc2ccc(OCCN)cc2)C(=O)N[C@@H](Cc2ccc3ccccc3c2)C(=O)NC2(C(=O)N[C@@H](CCCCNC(=O)COCCOCCNC(=O)COCCOCCNC(=O)CC[C@H](NC(=O)CCCCCCCCCOc3cccc(C(=O)O)c3)C(=O)O)C(=O)N[C@@H](CC(N)=O)C(=O)N[C@@H](Cc3cccnc3)C(=O)N(C)CC(N)=O)CCOCC2)NC1=O [Example 97, MeCO-Pen*-N-T-7MeW-K(Ac)-Pen*-AEF-2Nal-THP-K(PEG2PEG2gEmXOH)-N-3Pya-Sar-CONH2] (Ac-[Pen]NT[Trp(7-Me)]K(Ac)[Pen][AEF][2Nal][Thp]K([AEEA-AEEA-γGlu-Decanoyl(10-O(3-COOH-Ph))])N[3Pal][Sar]-NH2; disulfide 1-6)"
10,10.02,"CC(=O)NCCCC[C@@H]1NC(=O)[C@H](Cc2c[nH]c3c(C)cccc23)NC(=O)[C@H]([C@@H](C)O)NC(=O)[C@H](CCCCNC(=O)COCCOCCNC(=O)COCCOCCNC(=O)[C@@H]2CCCN2C(=O)[C@@H]2CCCN2C(=O)[C@@H]2CCCN2C(=O)CC[C@H](NC(=O)CCCCCCCCCCCCCCCCC(=O)O)C(=O)O)NC(=O)[C@@H](NC(=O)[C@@H](CCCNC(=N)N)NC(C)=O)C(C)(C)SSC(C)(C)[C@@H](C(=O)N[C@@H](Cc2ccc(OCCN)cc2)C(=O)N[C@@H](Cc2ccc3ccccc3c2)C(=O)NC2(C(=O)N[C@@H](CCCCNC(C)=O)C(=O)N[C@@H](CC(N)=O)C(=O)N[C@@H](Cc3cccnc3)C(=O)N(C)CC(N)=O)CCOCC2)NC1=O [Example 99, MeCO-r-Pen*-K(PEG2PEG2PPPgEC18OH)-T-7MeW-K(Ac)-Pen*-AEF-2Nal-THP-K(Ac)-N-3Pya-Sar-CONH2] (Ac-[dR][Pen]K([AEEA-AEEA-Pro-Pro-Pro-γGlu-C18 diacid])T[Trp(7-Me)]K(Ac)[Pen][AEF][2Nal][Thp]K(Ac)N[3Pal][Sar]-NH2; disulfide 2-7)"
